Measured values reported in article PMC10601436 (ACS Omega, 2023).
Peptide text beside a SMILES is read from it.

Target: hDPP-IV (Homo sapiens, UniProt P27487)
Test: DPP-IV inhibitory assay
Format: biochemical

Sequence of hDPP-IV (P27487 whole entry): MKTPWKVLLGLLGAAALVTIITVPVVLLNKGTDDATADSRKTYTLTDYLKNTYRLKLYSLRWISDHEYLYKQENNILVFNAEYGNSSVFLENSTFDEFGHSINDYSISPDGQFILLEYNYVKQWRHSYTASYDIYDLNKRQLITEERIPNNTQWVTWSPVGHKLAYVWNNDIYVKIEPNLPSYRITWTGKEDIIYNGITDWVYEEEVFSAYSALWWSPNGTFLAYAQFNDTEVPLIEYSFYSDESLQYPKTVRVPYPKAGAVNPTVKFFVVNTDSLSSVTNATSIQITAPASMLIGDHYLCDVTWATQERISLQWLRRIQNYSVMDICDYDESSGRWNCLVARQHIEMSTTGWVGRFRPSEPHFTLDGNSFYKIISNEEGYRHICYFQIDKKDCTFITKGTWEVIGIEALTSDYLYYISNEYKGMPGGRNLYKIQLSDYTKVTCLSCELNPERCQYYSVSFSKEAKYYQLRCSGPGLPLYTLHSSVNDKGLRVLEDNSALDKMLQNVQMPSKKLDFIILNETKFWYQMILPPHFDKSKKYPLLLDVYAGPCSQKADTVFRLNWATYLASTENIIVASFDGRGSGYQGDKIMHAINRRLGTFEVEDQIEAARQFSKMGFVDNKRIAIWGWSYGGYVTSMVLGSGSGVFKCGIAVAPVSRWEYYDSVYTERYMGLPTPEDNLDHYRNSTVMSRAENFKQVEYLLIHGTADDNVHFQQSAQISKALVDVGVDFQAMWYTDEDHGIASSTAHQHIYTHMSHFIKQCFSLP

| Compound | IC50 |
| --- | --- |
| C[C@@H](O)[C@H](NC(=O)[C@H](CCCNC(=N)N)NC(=O)[C@@H](N)Cc1c[nH]c2ccccc12)C(=O)O [WRT] (H-Trp-Arg-Thr-OH) | 556 µM |
| CC(C)[C@H](NC(=O)[C@@H](N)Cc1c[nH]c2ccccc12)C(=O)N[C@H](C(=O)O)[C@@H](C)O [WVT] (H-Trp-Val-Thr-OH) | 336 µM |
| N=C(N)NCCC[C@H](NC(=O)[C@@H](N)Cc1c[nH]c2ccccc12)C(=O)N[C@@H](CCC(N)=O)C(=O)O [WRQ] (H-Trp-Arg-Gln-OH) | 286 µM |
| N=C(N)NCCC[C@H](NC(=O)[C@@H]1CCCN1C(=O)[C@@H](N)Cc1c[nH]c2ccccc12)C(=O)O [WPR] (H-Trp-Pro-Arg-OH) | 209 µM |
| C[C@H](NC(=O)[C@@H](N)Cc1c[nH]c2ccccc12)C(=O)N[C@@H](CCC(=O)O)C(=O)O [WAE] (H-Trp-Ala-Glu-OH) | 462 µM |
| N=C(N)NCCC[C@H](NC(=O)[C@@H](N)Cc1c[nH]c2ccccc12)C(=O)N[C@@H](CCC(=O)O)C(=O)O [WRE] (H-Trp-Arg-Glu-OH) | 160 µM |
| CC(C)[C@H](N)C(=O)N1CCC[C@H]1C(=O)N[C@H](C(=O)N1CCC[C@H]1C(=O)N[C@@H](CS)C(=O)O)C(C)C [VPVPC] (H-VPVPC-OH) | 54.8 µM |
| CC(C)[C@H](NC(=O)[C@@H](N)Cc1c[nH]c2ccccc12)C(=O)N[C@@H](CO)C(=O)O [WVS] (H-Trp-Val-Ser-OH) | 247 µM |
| CC(C)[C@H](NC(=O)[C@@H](N)Cc1c[nH]c2ccccc12)C(=O)N[C@@H](CS)C(=O)O [WVC] (H-Trp-Val-Cys-OH) | 232 µM |
| CC(C)[C@H](NC(=O)[C@@H](N)Cc1c[nH]c2ccccc12)C(=O)N[C@@H](C)C(=O)O [WVA] (H-Trp-Val-Ala-OH) | 341 µM |
| C[C@H](NC(=O)[C@@H](N)Cc1c[nH]c2ccccc12)C(=O)N[C@@H](Cc1c[nH]cn1)C(=O)O [WAH] (H-Trp-Ala-His-OH) | 190 µM |
| CC(C)C[C@H](NC(=O)[C@@H]1CCCN1C(=O)[C@@H](N)Cc1c[nH]c2ccccc12)C(=O)O [WPL] (H-Trp-Pro-Leu-OH) | 461 µM |
| C[C@H](NC(=O)[C@@H](N)Cc1c[nH]c2ccccc12)C(=O)N[C@H](C(=O)O)[C@@H](C)O [WAT] (H-Trp-Ala-Thr-OH) | 296 µM |
